# Source: patent US20070249725A1, “Pharmaceutical formulations of sympathetic antagonist for the treatment of chronic muscle pain” (priority 2006, published 2007)
# Where a name gives a salt, the structure may show the parent alone.
# Key:
# trigger point = assay: Efficacy and dosage study for intramuscular injection of phenoxybenzamine hydrochloride: subject-reported percent improvement from baseline; format: in vivo, human
# Protocol: A total of 326 male and female subjects, approximately 15 to 85 years old with pain of 4-72 month duration were treated with various doses of phenoxybenzamine. If a potential subject had pain that was clearly muscular and clearly not due to arthritis, nerve root compression or other extramuscular cause, the subject was considered a candidate for phenoxybenzamine hydrochloride injection. Trigger points were identified by palpation. A monopolar EMG needle was then inserted into the trigger point. Another monopolar EMG needle was inserted into a nearby nontender fibers of the same muscle. […] The treatment was repeated in up to 10-12 trigger points per treatment session. Subjects could return for up to 6 treatment sessions, depending on the extent of their pain. The initial treatment was with a dose of 25 mg of phenoxybenzamine hydrochloride in an injection volume of 2 ml. […] For 318 subjects, data were available for analysis for the doses of phenoxybenzamine hydrochloride used, efficacy and incidence of serious adverse events.
# Subjects were asked to quantify, in terms of percent improvement from baseline, how they felt after treatment.
# active trigger points = assay: Multicenter, randomized, placebo-controlled, double-blind dose response study of intramuscular PBZ: efficacy (Example II); format: in vivo, human
# Protocol: This was a multicenter, randomized, placebo-controlled, double-blind, dose response study of intramuscular phenoxybenzamine hydrochloride (PBZ) versus vehicle and saline placebos. Phenoxybenzamine formulation known in the art (propylene glycol and alcohol) and diluted in saline at the time of injection were evaluated. […] Patients with pain in the most commonly affected regions, the upper and lower back, were studied. Patients enrolled in this study were male or female with 4 months to 8 years of myofascial pain syndrome with identifiable active trigger points. Patients were required to have had EMG documented triggers points and meet the criteria of <10 uV in the adjacent muscle site and have a minimum of a 2:1 ratio of trigger point amplitude: adjacent amplitude. Attempts were made to obtain maximum amplitude in the trigger point.
# The primary objectives of this study were to evaluate the safety, tolerance, and efficacy of 4 doses (0.1, 0.3, 1.0, or 2.4 mg) of phenoxybenzamine per intramuscular injection site. The vehicle placebo group received vehicle in a concentration equivalent to the active doses. A second placebo was saline. All injections were of 0.3 ml in volume. Up to 10 trigger points were injected at each treatment session. There were up to 2 treatment sessions up to 10 days apart. The primary efficacy evaluation was made at week 12 of treatment. The Visual Analogue Pain Scale (VAS) was used to assess pain in the affected region before and after treatment. Secondary efficacy assessments included the McGill Pain Questionnaire (MPQ), the Spinal Function Sort (SFS) and the SF-36 Quality of Life questionnaire.
# [1] = cited from earlier work
smiles,measurement,setting,value
"CC(COc1ccccc1)N(CCCl)Cc1ccccc1 (centres unmarked) [Phenoxybenzamine Hydrochloride, phenoxybenzamine hydrochloride]",Mean % improvement,"trigger point; 3 mg dose, Two month, 178 subjects (Interim data)",54.9%
same,% of Subjects with Greater than 25% Improvement,"trigger point; 10 mg dose, Four month, 84 subjects",63%
same,% of Subjects with Greater than 25% Improvement,"trigger point; 10 mg dose, One month, 84 subjects",52%
same,% of Subjects with Greater than 25% Improvement,"trigger point; 10 mg dose, Three month, 84 subjects",66%
same,% of Subjects with Greater than 25% Improvement,"trigger point; 10 mg dose, Two month, 84 subjects",68%
same,% of Subjects with Greater than 25% Improvement,"trigger point; 25 mg dose, Four month, 16 subjects",53%
same,% of Subjects with Greater than 25% Improvement,"trigger point; 25 mg dose, One month, 16 subjects",57%
same,% of Subjects with Greater than 25% Improvement,"trigger point; 25 mg dose, One week, 16 subjects",40%
same,% of Subjects with Greater than 25% Improvement,"trigger point; 25 mg dose, Two month, 16 subjects",66%
same,% of Subjects with Greater than 25% Improvement,"trigger point; 10-12.5 mg dose, Four month, 8 subjects",100%
same,% of Subjects with Greater than 25% Improvement,"trigger point; 10-12.5 mg dose, One month, 8 subjects",50%
same,% of Subjects with Greater than 25% Improvement,"trigger point; 10-12.5 mg dose, Two month, 8 subjects",83%
same,subjects reported no improvement in pain,"trigger point; Example 1, after treatment",About 15%
same,efficacy of formulations in this study,active trigger points; 1.0 mg and 2.4 mg in propylene glycol and alcohol composition,ineffective
same,difference in percent change from baseline between placebo and active drug,"active trigger points; 1.0 mg group, not statistically significant",9.9%
same,efficacy compared with placebo,active trigger points; 2.4 mg group,equivalent to placebo
same,irritation at the site of the injection,[1],irritation of the muscle at the site of the injection can occur
